Results reported in publication PMC10861852, “Loss of activation by GABA in vertebrate delta ionotropic glutamate receptors” (Proceedings of the National Academy of Sciences of the …, 2024).
Substitutions are numbered along the chain they refer to.

Experiments:
RatGluD2^9x = biological target: T1, RatGluD2^9x (Rattus norvegicus, UniProt Q63226, A686S/D753Q/K694R/N720P/N763K/P806D/Q786M/R787V/Y613F); test: Two-electrode voltage clamp, responses to ligands in mutant-expressing oocytes; format: cell-based; conditions: ligands 30 mM
T1 construct: expressed in transfected cells; host or cells: Xenopus laevis oocytes injected with mRNA
T1 sequence (Q63226 24-1007 Y613F/A686S/K694R/N720P/D753Q/N763K/Q786M/R787V/P806D): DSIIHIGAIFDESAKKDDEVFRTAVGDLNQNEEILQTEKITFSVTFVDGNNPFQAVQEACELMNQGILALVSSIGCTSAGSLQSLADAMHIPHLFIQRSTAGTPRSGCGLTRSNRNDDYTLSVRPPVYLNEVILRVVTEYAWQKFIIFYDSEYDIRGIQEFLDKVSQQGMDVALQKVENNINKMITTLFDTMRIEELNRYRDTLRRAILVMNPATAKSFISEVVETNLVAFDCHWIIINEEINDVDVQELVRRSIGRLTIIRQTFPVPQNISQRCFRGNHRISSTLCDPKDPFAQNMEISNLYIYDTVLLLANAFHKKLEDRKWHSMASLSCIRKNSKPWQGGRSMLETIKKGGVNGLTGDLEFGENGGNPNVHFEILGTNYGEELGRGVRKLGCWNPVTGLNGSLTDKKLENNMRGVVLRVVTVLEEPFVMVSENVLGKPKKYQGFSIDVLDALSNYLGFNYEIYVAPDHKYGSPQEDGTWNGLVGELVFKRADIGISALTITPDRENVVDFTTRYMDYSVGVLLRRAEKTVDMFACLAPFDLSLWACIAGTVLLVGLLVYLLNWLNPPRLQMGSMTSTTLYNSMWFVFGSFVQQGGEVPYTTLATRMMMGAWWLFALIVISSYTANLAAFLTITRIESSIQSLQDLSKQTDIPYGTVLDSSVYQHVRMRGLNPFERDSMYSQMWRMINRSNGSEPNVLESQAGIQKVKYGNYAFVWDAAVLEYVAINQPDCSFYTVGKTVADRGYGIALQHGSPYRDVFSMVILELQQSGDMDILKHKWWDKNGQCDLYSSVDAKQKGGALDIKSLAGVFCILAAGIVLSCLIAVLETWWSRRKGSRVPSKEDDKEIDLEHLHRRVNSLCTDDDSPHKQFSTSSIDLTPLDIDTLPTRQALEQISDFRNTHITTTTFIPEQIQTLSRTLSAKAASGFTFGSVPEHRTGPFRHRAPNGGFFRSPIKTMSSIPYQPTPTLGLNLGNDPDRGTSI
Description: (§1) If the 10 mutations discussed above drove the loss of function in vertebrate delta iGluRs, one might expect that the latter could be “reawakened” via active invertebrate delta iGluR-like mutations here. We therefore engineered mutant RatGluD2 iGluRs to contain at these positions the equivalent residues from starfish delta iGluRs. These mutants were RatGluD2^5x, containing Y613F, A686S, K694R, N720P, and P806D substitutions (pink in Fig. 6A), and RatGluD2^9x, additionally containing N763K, D753Q, Q786M, and R787V (cyan in Fig. 6A).
(§2) Fig. 6. AcaGluD-like mutations alter RatGluD2 receptor function. (A) D-serine bound RatGluD2 from X-ray structure PDB:2v3u ([13]). Selected amino acid residues are indicated, colored, shown as sticks, and labeled 5×, 9×, 10×, and/or Lc according to the multiple mutants they were incorporated into. 10× mutant included 10×, 9×, and 5× positions. 9× included 9× and 5×. 5× included only 5×. […] (B–E) Example current responses to different neurotransmitter ligands (30 mM) and to pore blocker pentamidine (Pent, 100 μM) in oocytes expressing indicated RatGluD2 mutants. The dashed line indicates zero current baseline. (F) Individual (dots) and mean (columns) responses to ligands in oocytes expressing indicated RatGluD2 mutants (n = 4 to 5).

RatGluD2^5x = biological target: T2, RatGluD2^5x (Rattus norvegicus, UniProt Q63226, A686S/K694R/N720P/P806D/Y613F); test: as above; format: cell-based; conditions: ligands 30 mM
T2 construct: expressed in transfected cells; host or cells: Xenopus laevis oocytes injected with mRNA
T2 sequence (Q63226 24-1007 Y613F/A686S/K694R/N720P/P806D): T1 sequence (Q63226 24-1007 Y613F/A686S/K694R/N720P/D753Q/N763K/Q786M/R787V/P806D) with Q730D, K740N, M763Q, V764R
Description: as §1, §2

AcaGluD = biological target: T3, AcaGluD (Acanthaster planci, UniProt A0A8B7XXR5); test: Two-electrode voltage clamp, ligand-gated currents in oocytes; format: cell-based; conditions: for inhibition of GABA-gated current: coapplied with ~EC30 GABA concentration
T3 sequence (A0A8B7XXR5 24-958): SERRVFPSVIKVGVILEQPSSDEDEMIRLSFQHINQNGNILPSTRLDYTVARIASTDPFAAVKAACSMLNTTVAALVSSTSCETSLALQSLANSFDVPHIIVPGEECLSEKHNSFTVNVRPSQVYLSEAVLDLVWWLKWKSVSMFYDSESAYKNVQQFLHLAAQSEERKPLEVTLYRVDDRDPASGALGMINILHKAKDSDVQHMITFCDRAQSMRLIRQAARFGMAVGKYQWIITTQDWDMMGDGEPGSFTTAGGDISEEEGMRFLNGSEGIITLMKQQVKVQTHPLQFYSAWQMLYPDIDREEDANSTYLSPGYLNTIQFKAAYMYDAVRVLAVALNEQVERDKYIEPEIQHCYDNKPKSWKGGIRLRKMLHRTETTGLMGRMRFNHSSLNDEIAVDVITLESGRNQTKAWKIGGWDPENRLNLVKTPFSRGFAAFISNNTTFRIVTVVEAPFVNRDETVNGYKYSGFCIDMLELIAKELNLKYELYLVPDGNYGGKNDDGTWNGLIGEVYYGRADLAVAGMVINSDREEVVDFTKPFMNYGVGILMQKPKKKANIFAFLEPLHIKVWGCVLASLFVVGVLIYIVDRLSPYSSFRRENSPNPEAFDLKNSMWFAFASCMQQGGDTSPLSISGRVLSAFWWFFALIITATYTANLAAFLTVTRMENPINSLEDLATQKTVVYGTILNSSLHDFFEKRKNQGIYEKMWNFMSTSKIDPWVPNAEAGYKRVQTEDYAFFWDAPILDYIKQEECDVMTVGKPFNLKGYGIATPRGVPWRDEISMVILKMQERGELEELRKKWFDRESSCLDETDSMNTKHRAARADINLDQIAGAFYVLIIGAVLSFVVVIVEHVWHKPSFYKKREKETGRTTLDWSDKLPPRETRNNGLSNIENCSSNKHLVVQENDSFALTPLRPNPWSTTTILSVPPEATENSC

WT RatGluD2 = biological target: T4, WT RatGluD2 (Rattus norvegicus, UniProt Q63226); test: Two-electrode voltage clamp in oocytes; format: cell-based; conditions: n = 4
T4 construct: expressed in transfected cells; host or cells: Xenopus laevis oocytes injected with mRNA
T4 sequence (Q63226 24-1007): T1 sequence (Q63226 24-1007 Y613F/A686S/K694R/N720P/D753Q/N763K/Q786M/R787V/P806D) with F590Y, S663A, R671K, P697N, Q730D, K740N, M763Q, V764R, D783P

RatGluD2^Lc = biological target: T5, RatGluD2^Lc (Rattus norvegicus, UniProt Q63226, A654T); test: Two-electrode voltage clamp, inhibition of constitutive current in oocytes; conditions: each n = 4
T5 sequence (Q63226 24-1007 A654T): T1 sequence (Q63226 24-1007 Y613F/A686S/K694R/N720P/D753Q/N763K/Q786M/R787V/P806D) with F590Y, A631T, S663A, R671K, P697N, Q730D, K740N, M763Q, V764R, D783P
Description: (C) Left panels, example recordings of oocytes expressing A654T lurcher-mutant RatGluD2 (RatGluD2Lc) in response to indicated AMPA iGluR antagonists and D-serine. Dashed line, zero current baseline. Right panel, % inhibition at different oocytes (dots) and resulting means (columns).

N[C@@H](CCC(=O)O)C(=O)O [glutamate]
current response to ligand (RatGluD2^9x): no responses
current response to ligand (RatGluD2^5x): no responses
EC50 (AcaGluD; 0 Ca2+, n = 4): ~30 mM
maximum ligand-gated current amplitude (AcaGluD; in the presence of 1.8 mM Ca2+): 5.8 ± 0.6 µA
maximum ligand-gated current amplitude (AcaGluD; nominally Ca2+-free solutions): 0.28 ± 0.02 µA

N#Cc1cc2[nH]c(=O)c(=O)[nH]c2cc1[N+](=O)[O-] [CNQX]
effect on oocytes expressing WT RatGluD2 (WT RatGluD2): no effect
inhibition of constitutive currents (RatGluD2^Lc): 10 ± 0.2%
currents elicited when applied alone (AcaGluD; 100 μM, applied alone): elicited no currents
inhibition of GABA-gated current (AcaGluD; 100 μM): 81 ± 4%
enhancement of glutamate-gated currents (AcaGluD; 100 μM, n = 5): no effect

O=C(O)c1cc(=O)c2c(Cl)cc(Cl)cc2[nH]1 [5,7-dichlorokynurenic acid]
inhibition of GABA-gated current (AcaGluD; 100 μM): 11 ± 5%

C[C@@H](NCc1cc(Br)cc2[nH]c(=O)c(=O)[nH]c12)P(=O)(O)O [CGP-78608]
inhibition of GABA-gated current (AcaGluD; 100 μM): 9 ± 3%
